According to US6410530B1, “Substituted 1,2,3,4-tetrahydronaphthalene derivatives” (AstraZeneca AB, priority 1996, dated 2002):

Structure (SMILES)	melting point [°C]
CN1CCN(c2cccc3c2C[C@H](NC(=O)c2ccccc2OS(C)(=O)=O)CC3)CC1 [Example 93, (R)-N-[8-(4-Methylpiperazin-1-yl)-1,2,3,4-tetrahydro-2-naphthyl]-2-methylsulfonyloxybenzamide]	144 to 145
CN1CCC(c2cccc3c2C[C@H](NC(=O)c2ccc(C(F)(F)F)cc2)CC3)CC1 [Example 99, (R)-N-[8-(1-Methylpiperidine-4yl)-1,2,3,4-tetrahydro-2-naphthyl]-4-trifluoromethylbenzamide]	163 to 166
CCCCOc1ccc(C(=O)N[C@@H]2CCc3cccc(C4CCN(C)CC4)c3C2)cc1 [Example 100, (R)-N-[8-(1-Methylpiperidin-4-yl)-1,2,3,4-tetrahydro-2-naphthyl]-4-butoxybenzamide]	162 to 164
CN1CCC(c2cccc3c2C[C@H](NC(=O)c2ccc(N4CCOCC4)cc2)CC3)CC1 [Example 101, (R)-N-[8-(1-Methylpiperidin-4-yl)-1,2,3,4-tetrahydro-2-naphthyl]-4-morpholinobenzamide]	196 to 198
CN1CCN(c2cccc3c2CC[C@@H](NC(=O)c2ccc(N4CCOCC4)cc2)C3)CC1 [Example 118, (R)-N-[5-(4-Methylpiperazin-1-yl)-1,2,3,4-tetrahydro-2-naphthyl]-4-morpholinobenzamide]	127 to 128
CN1CCN(c2cccc3c2CC[C@H](NC(=O)c2ccc(N4CCOCC4)cc2)C3)CC1 [Example 119, (S)-N-[5-(4-Methylpiperazin-1-yl)-1,2,3,4-tetrahydro-2-naphthyl]-4-morpholinobenzamide]	129 to 131
CN1CCN(c2cccc3c2C[C@H](N(C)C(=O)c2ccc(C(F)(F)F)cc2)CC3)CC1 [Example 122, (R)-N-Methyl-N-[8-(4-methylpiperazin-1-yl)-1,2,3,4-tetrahydro-2-naphthyl]-4-trifluoromethylbenzamide]	123 to 125
CN1CCN(c2cccc3c2C[C@H](NC(=O)c2ccc(N4CCSCC4)cc2)CC3)CC1 [Example 125, (R)-N-[8-(4-Methylpiperazin-1-yl)-1,2,3,4-tetrahydro-2-naphthyl]-4-thiomorpholinobenzamide]	190 to 191
CN1CCN(c2cccc3c2C[C@H](NC(=O)c2ccc(C(=O)N4CCOCC4)cc2)CC3)CC1 [Example 129, (R)-N-[8-(4-Methylpiperazin-1-yl)-1,2,3,4-tetrahydro-2-naphthyl]-4-morpholinocarbonylbenzamide]	124 to 127
